{
  "source": "ChEMBL document CHEMBL1137802",
  "about": "“Specific antioxidant activity of caffeoyl derivatives and other natural phenolic compounds: LDL protection against oxidation and decrease in the proinflammatory lysophosphatidylcholine production” (J Nat Prod, 2001)",
  "format_in_all_cases": "functional, cell-free",
  "key": {"[1]": {"experiment": "Antioxidant activity against Cu2+-induced lipid peroxidation in human plasma LDL assessed as conjugated diene formation at 5 umol/L preincubated for 1 hr before Cu2+ challenge measured after 270 mins"}, "[2]": {"experiment": "Antioxidant activity against Cu2+-induced lipid peroxidation in human plasma LDL assessed as lysophosphatidylcholine formation at 5 umol/L preincubated for 1 hr before Cu2+ challenge measured after 120 mins"}, "[3]": {"experiment": "Antioxidant activity against Cu2+-induced lipid peroxidation in human plasma LDL assessed as maximal compound concentration at 10 umol/L preincubated for 1 hr before Cu2+ challenge measured after 180 mins relative to compound present at 0 min"}, "[4]": {"experiment": "Antioxidant activity against Cu2+-induced lipid peroxidation in human plasma LDL assessed as lysophosphatidylcholine formation at 10 umol/L preincubated for 1 hr before Cu2+ challenge measured after 180 mins"}, "[5]": {"experiment": "Antioxidant activity against Cu2+-induced lipid peroxidation in human plasma LDL assessed as vitamin E consumption at 10 umol/L preincubated for 1 hr before Cu2+ challenge measured after 45 mins"}, "[6]": {"experiment": "Antioxidant activity against Cu2+-induced lipid peroxidation in human plasma LDL assessed as vitamin E consumption at 10 umol/L preincubated for 1 hr before Cu2+ challenge measured after 60 mins"}, "[7]": {"experiment": "Antioxidant activity against Cu2+-induced lipid peroxidation in human plasma LDL assessed as vitamin E consumption at 10 umol/L preincubated for 1 hr before Cu2+ challenge measured after 120 mins"}, "[8]": {"experiment": "Antioxidant activity against Cu2+-induced lipid peroxidation in human plasma LDL assessed as vitamin E consumption at 10 umol/L preincubated for 1 hr before Cu2+ challenge measured after 150 mins"}, "[9]": {"experiment": "Antioxidant activity against Cu2+-induced lipid peroxidation in human plasma LDL assessed as maximal compound concentration at 10 umol/L preincubated for 1 hr before Cu2+ challenge measured after 15 mins relative to compound present at 0 min"}, "[10]": {"experiment": "Antioxidant activity against Cu2+-induced lipid peroxidation in human plasma LDL assessed as maximal compound concentration at 10 umol/L preincubated for 1 hr before Cu2+ challenge measured after 120 mins relative to compound present at 0 min"}, "[11]": {"experiment": "Antioxidant activity against Cu2+-induced lipid peroxidation in human plasma LDL assessed as conjugated diene formation at 20 umol/L preincubated for 1 hr before Cu2+ challenge measured after 90 mins"}, "[12]": {"experiment": "Antioxidant activity against Cu2+-induced lipid peroxidation in human plasma LDL assessed as conjugated diene formation at 20 umol/L preincubated for 1 hr before Cu2+ challenge measured after 150 mins"}, "[13]": {"experiment": "Antioxidant activity against Cu2+-induced lipid peroxidation in human plasma LDL assessed as lysophosphatidylcholine formation at 20 umol/L preincubated for 1 hr before Cu2+ challenge measured after 60 mins"}, "[14]": {"experiment": "Antioxidant activity against Cu2+-induced lipid peroxidation in human plasma LDL assessed as vitamin E consumption at 20 umol/L preincubated for 1 hr before Cu2+ challenge measured after 30 mins"}, "[15]": {"experiment": "Antioxidant activity against Cu2+-induced lipid peroxidation in human plasma LDL assessed as maximal compound concentration at 20 umol/L preincubated for 1 hr before Cu2+ challenge measured after 15 mins relative to compound present at 0 min"}, "[16]": {"experiment": "Antioxidant activity against Cu2+-induced lipid peroxidation in human plasma LDL assessed as maximal compound concentration at 20 umol/L preincubated for 1 hr before Cu2+ challenge measured after 60 mins relative to compound present at 0 min"}, "[17]": {"experiment": "Antioxidant activity against Cu2+-induced lipid peroxidation in human plasma LDL assessed as maximal compound concentration at 20 umol/L preincubated for 1 hr before Cu2+ challenge measured after 90 mins relative to compound present at 0 min"}, "[18]": {"experiment": "Antioxidant activity against Cu2+-induced lipid peroxidation in human plasma LDL assessed as maximal compound concentration at 20 umol/L preincubated for 1 hr before Cu2+ challenge measured after 150 mins relative to compound present at 0 min"}, "[19]": {"experiment": "Antioxidant activity against Cu2+-induced lipid peroxidation in human plasma LDL assessed as maximal compound concentration at 20 umol/L preincubated for 1 hr before Cu2+ challenge measured after 210 mins relative to compound present at 0 min"}, "[20]": {"experiment": "Antioxidant activity against Cu2+-induced lipid peroxidation in human plasma LDL assessed as conjugated diene formation preincubated for 1 hr before Cu2+ challenge"}, "[21]": {"experiment": "Antioxidant activity against Cu2+-induced lipid peroxidation in human plasma LDL assessed as vitamin E consumption at 5 umol/L preincubated for 1 hr before Cu2+ challenge measured after 15 mins"}, "[22]": {"experiment": "Antioxidant activity against Cu2+-induced lipid peroxidation in human plasma LDL assessed as vitamin E consumption at 5 umol/L preincubated for 1 hr before Cu2+ challenge measured after 60 mins"}, "[23]": {"experiment": "Antioxidant activity against Cu2+-induced lipid peroxidation in human plasma LDL assessed as vitamin E consumption at 5 umol/L preincubated for 1 hr before Cu2+ challenge measured after 120 mins"}, "[24]": {"experiment": "Antioxidant activity against Cu2+-induced lipid peroxidation in human plasma LDL assessed as vitamin E consumption at 5 umol/L preincubated for 1 hr before Cu2+ challenge measured after 180 mins"}, "[25]": {"experiment": "Antioxidant activity against Cu2+-induced lipid peroxidation in human plasma LDL assessed as maximal compound concentration at 5 umol/L preincubated for 1 hr before Cu2+ challenge measured after 30 mins relative to compound present at 0 min"}, "[26]": {"experiment": "Antioxidant activity against Cu2+-induced lipid peroxidation in human plasma LDL assessed as maximal compound concentration at 5 umol/L preincubated for 1 hr before Cu2+ challenge measured after 60 mins relative to compound present at 0 min"}, "[27]": {"experiment": "Antioxidant activity against Cu2+-induced lipid peroxidation in human plasma LDL assessed as maximal compound concentration at 5 umol/L preincubated for 1 hr before Cu2+ challenge measured after 150 mins relative to compound present at 0 min"}, "[28]": {"experiment": "Antioxidant activity against Cu2+-induced lipid peroxidation in human plasma LDL assessed as maximal compound concentration at 5 umol/L preincubated for 1 hr before Cu2+ challenge measured after 180 mins relative to compound present at 0 min"}, "[29]": {"experiment": "Antioxidant activity against Cu2+-induced lipid peroxidation in human plasma LDL assessed as maximal compound concentration at 5 umol/L preincubated for 1 hr before Cu2+ challenge measured after 270 mins relative to compound present at 0 min"}, "[30]": {"experiment": "Antioxidant activity against Cu2+-induced lipid peroxidation in human plasma LDL assessed as conjugated diene formation at 10 umol/L preincubated for 1 hr before Cu2+ challenge measured after 60 mins"}, "[31]": {"experiment": "Antioxidant activity against Cu2+-induced lipid peroxidation in human plasma LDL assessed as conjugated diene formation at 10 umol/L preincubated for 1 hr before Cu2+ challenge measured after 90 mins"}, "[32]": {"experiment": "Antioxidant activity against Cu2+-induced lipid peroxidation in human plasma LDL assessed as conjugated diene formation at 10 umol/L preincubated for 1 hr before Cu2+ challenge measured after 120 mins"}, "[33]": {"experiment": "Antioxidant activity against Cu2+-induced lipid peroxidation in human plasma LDL assessed as conjugated diene formation at 10 umol/L preincubated for 1 hr before Cu2+ challenge measured after 150 mins"}},
  "data": [
    {"compound": "CC(C)(Sc1cc(C(C)(C)C)c(O)c(C(C)(C)C)c1)Sc1cc(C(C)(C)C)c(O)c(C(C)(C)C)c1", "values": [
      {"measurement": "Activity", "setting": "[1]", "result": 87.1, "unit": "%"},
      {"measurement": "Activity", "setting": "[2]", "result": 10.6, "unit": "%"},
      {"measurement": "Activity", "setting": "[3]", "result": 31.2, "unit": "%"},
      {"measurement": "Activity", "setting": "[4]", "result": 6.2, "unit": "%"},
      {"measurement": "Activity", "setting": "[5]", "result": 11, "unit": "%"},
      {"measurement": "Activity", "setting": "[6]", "result": 0, "unit": "%"},
      {"measurement": "Activity", "setting": "[7]", "result": 0, "unit": "%"},
      {"measurement": "Activity", "setting": "[8]", "result": 0, "unit": "%"},
      {"measurement": "Activity", "setting": "[9]", "result": 86.6, "unit": "%"},
      {"measurement": "Activity", "setting": "[10]", "result": 37.2, "unit": "%"},
      {"measurement": "Activity", "setting": "[11]", "result": 0.7, "unit": "%"},
      {"measurement": "Activity", "setting": "[12]", "result": 1.1, "unit": "%"},
      {"measurement": "Activity", "setting": "[13]", "result": 1.2, "unit": "%"},
      {"measurement": "Activity", "setting": "[14]", "result": 19.9, "unit": "%"},
      {"measurement": "Activity", "setting": "[15]", "result": 97, "unit": "%"},
      {"measurement": "Activity", "setting": "[16]", "result": 51.7, "unit": "%"},
      {"measurement": "Activity", "setting": "[17]", "result": 44.1, "unit": "%"},
      {"measurement": "Activity", "setting": "[18]", "result": 41.2, "unit": "%"},
      {"measurement": "Activity", "setting": "[19]", "result": 38.3, "unit": "%"},
      {"measurement": "Activity", "setting": "[20]", "result": "Dose-dependent effect"},
      {"measurement": "Activity", "setting": "[21]", "result": 45, "unit": "%"},
      {"measurement": "Activity", "setting": "[22]", "result": 0, "unit": "%"},
      {"measurement": "Activity", "setting": "[23]", "result": 0, "unit": "%"},
      {"measurement": "Activity", "setting": "[24]", "result": 0, "unit": "%"},
      {"measurement": "Activity", "setting": "[25]", "result": 94.8, "unit": "%"},
      {"measurement": "Activity", "setting": "[26]", "result": 118, "unit": "%"},
      {"measurement": "Activity", "setting": "[27]", "result": 28.6, "unit": "%"},
      {"measurement": "Activity", "setting": "[28]", "result": 45.3, "unit": "%"},
      {"measurement": "Activity", "setting": "[29]", "result": 22.5, "unit": "%"},
      {"measurement": "Activity", "setting": "[30]", "result": 0.6, "unit": "%"},
      {"measurement": "Activity", "setting": "[31]", "result": 4, "unit": "%"},
      {"measurement": "Activity", "setting": "[32]", "result": 39.4, "unit": "%"},
      {"measurement": "Activity", "setting": "[33]", "result": 77.2, "unit": "%"}
    ]}
  ]
}
